“Also recorded” adds a separate entry of the source.
Legend:
CEM cells [1] = assay: Reactive oxygen species (ROS) assay, DCFH-DA, DEM-treated cells; type: cell-based, human; settings: for suppression of ROS (DCFH-DA): 0.25 μM for 15 hours, DEM 40 min, CCRF-CEM cells; for protection against ROS production (DCF fluorescence): 5 μM, pretreatment 4 or 24 h
Source text: Cellular ROS production can be monitored using 2′,7′-dichlorodihydrofluorescein diacetate (DCFH-DA) (LeBel et al. (1992) Chem. Res. Toxicol. 5, 227-231) (Molecular Probes, Eugene, Oreg., USA), a membrane permeable and oxidant-sensitive fluorescent dye. DCFH-DA is a non-fluorescent derivative of fluorescein that emits fluorescence after being oxidized by hydrogen peroxide and other ROS. The emitted fluorescence is directly proportional to the concentration of hydrogen peroxide. DCFH-DA is nonionic and nonpolar and is easily taken up by cells. Once inside the cell, DCFH-DA is hydrolyzed by cellular esterases to non-fluorescent DCFH which traps the dye in the cell. In the presence of ROS including hydrogen peroxide, DCFH is oxidized to the highly fluorescent compound dichlorofluorescein (DCF). The intracellular DCF fluorescence is used as an index of cellular ROS production.
Cellular oxidative stress was induced by pharmacological depletion of glutathione (GSH) using the chemical diethylmaleate (DEM). ROS production was assessed by monitoring DCF fluorescence. Leukemic CEM cells (ATCC®, catalogue number CRL-2264) were cultured in RPMI (GIBCO, Grand island, N.Y., USA) with 10% FCS, 2 mM glutamine (HyClone, South Logan, Utah, USA) and 1% penicillin-streptomycin mix antibiotics (Cellgro, Manassan, Va., USA) supplements. Cells were maintained in the log phase at a concentration of between 1×10^5 and 1×10^6 cells/mL. CEM cells (1×10^6 cell/mL) were plated (1 mL) in twelve well plate and treated with the invention compounds (final concentration 1 and 5 μM), and incubated for two hours at 37° C., 5% CO2. The compounds tested were prepared by first making stock solutions (2.5 mM) in dimethylsulfoxide (DMSO). Cells were treated with 5 mM DEM for 30 minutes and collected by centrifugation at 300×g for 3 min and then washed twice with Hanks' Balanced Salt Solution (HSSB) buffer (Sigma, St. Louis, Mo. USA). Cells were resuspended in HSSB buffer+10 mM glucose and incubated at 37° C. in the dark for 20 min with 10 μM DCFH-DA. Cells were collected by centrifugation at 300×g for 3 min and then washed twice with HSSB buffer. The samples were analyzed immediately by flow cytometry (Becton-Dickinson FACS Caliber), (Cell Quest software, BD Biosciences) using 488 nm excitation laser and FL1-H channel 538 nm emission filter. In each analysis, 10,000 events were recorded after cell debris were electronically gated out. Results obtained were verified by repeating experiments N=3 independent experiments. Authentic hydrogen peroxide was used as a positive control.

CEM cells [2] = assay: Trypan blue cell viability assay, DEM-treated cells; type: cell-based, human; settings: overnight incubation, then 5 mM DEM, 3 h
Method: Cell viability determined by trypan blue exclusion assay: This technique was used to assess the cytoprotective effects of the invention compounds in cultured cells pharmacologically treated to induce cell death by GSH depletion. DEM was used to deplete cellular GSH and induce oxidative stress. The viability of DEM-treated CEM cells was determined by their ability to exclude the dye trypan blue. Viable cells exclude trypan blue; whereas, non-viable cells take up the dye and stain blue. Briefly, CEM cells were grown in RPMI 1640 medium (GIBCO, Grand island, N.Y., USA) supplemented with 10% fetal calf serum, 2 mM glutamine (HyClone, South Logan, Utah, USA), 1% penicillin-streptomycin mix (Cellgro, Manassan, Va., USA). Cells were seeded at a density of 1×10^6 cells/mL and treated with different concentrations of the invention compounds. Cells were incubated at 37° C. in a humidified atmosphere of 5% CO2 in air for three hours with 5 mM DEM. Cell viability was determined by staining cells with 0.4% trypan blue using a hemacytometer. At least 500 cells were counted for each experimental group. At the time of assay, >95% of DEM-treated cells were trypan blue positive; whereas, in non-DEM treated control cell cultures >95% cells were viable. Cell viability was expressed as the percentage of control. Data are expressed as means±S.E.M (n=3).

CEM leukemia cells [3] = assay: Mitochondrial membrane potential (Δψm) assay, TMRM, FACS; type: cell-based, human; settings: pretreatment 0.5, 1 or 2.5 μM overnight, DEM
Method: Measurement of Mitochondrial Membrane Potential (Δψm)(FACS). For the determination of Δψm, CEM leukemia cells were pre-treated with or without the test compounds. The cells were treated with 5 mM DEM for 120 minutes, collected by centrifugation at 300×g for 3 minutes and then washed twice with phosphate buffered saline. The cells were re-suspended in HSSB buffer and incubated at 37° C. in the dark for 15 minutes with 250 nM TMRM (a cationic dye which accumulates within mitochondria in accordance with the Δψm Nernst potential). Cells were collected by centrifugation at 300×g for 3 minutes and then washed twice with phosphate buffered saline. The samples were analyzed immediately by flow cytometry using 488 nm excitation laser and the FL2-H channel. The results obtained were verified in three independent experiments. The protonophore FCCP (30 μM) was used to dissipate the chemiosmotic proton gradient (ΔμH^+) and served as a control for loss of Δψm. In each analysis, 10,000 events were recorded.

[4] = C11-BODIPY581/591 oxidation lipid peroxidation assay in liposomes; settings: 10 mM AAPH, phospholipid liposomes, phosphate buffer, 40° C.
Method: To overcome the problem of spectral overlap using cis-parinaric acid, a fluorescence assay for lipid peroxidation using a lipophilic probe belonging to the BODIPY class of fluorescent dyes was used. C11-BODIPY^581/591 (4,4-difluoro-5(4-phenyl-1,3-butadienyl)-4-bora-3a,4a-diaza-s-indacene-3-propionic acid) fluorescence shifts from red to green upon oxidation. C11-BODIPY^581/591 (Molecular Probes, Eugene, Oreg., USA) stock solution concentrations were determined by measuring the absorption of C11-BODIPY^581/591 at 582 nm using a molar extinction coefficient of 140,000 mol^−1 cm^−1(R. P. Haugland, (1999) Handbook of Fluorescent Probes and Research Chemicals, Molecular Probes, Inc., Eugene, Oreg.). The lipid peroxidation inducer 2,2′-Azobis (2-amidino-propane dihydrochloride) (AAPH) and the antioxidant compound α-tocopherol were obtained from Sigma (St. Louis, Mo., USA). Phospholipid bilayers were prepared from 1-stearoyl-2-oleoyl-phosphatidylcholine (SOPC) and 1,2-dilinoleoyl-phosphatidylcholine (DLPC) and were purchased from Avanti® polar lipids, INC (Alabaster, Ala., USA).
Phosphotidylcholine (PC) liposomes were prepared as described before (Guey-Shuang et al. (1982) Lipids. 17, 403-413). Briefly, DLPC (25 mg) and SOPC (25 mg) were dissolved in chloroform and the solvent was removed by nitrogen evaporation (˜2 hours to give a thin film of PC in a round bottom flask. The lipid film was hydrated with 50 mL of 10 mM Tris-HCl (pH 7.4), 100 mM KCl, shaken and sonicated for 15 seconds. The liposomes obtained were filtered several times through 0.2 μM membrane filter.
C11 BODIPY^581/591 was incorporated into liposomes and oxidized by peroxyl radicals derived from the decomposition of AAPH in presence and absence of the compounds. […] Liposomes were pre-incubated for 10 min with 200 nM C11 BODIPY^581/591 to allow their incorporation into the lipid phase of the liposomes. After the addition of AAPH (10 mM) the decay of red fluorescence was followed at λ exc=570 nm, λ em=600 nm. Relative fluorescence units were normalized to 100% intensity. Results obtained were verified by repeating experiments N=3 independent experiments.

Human CEM leukemia cells = assay: Live/Dead Viability/Cytotoxicity flow cytometry assay; type: cell-based; settings: overnight incubation, then DEM 3 hours
Method: Cell viability and cytotoxicity were determined by simultaneous staining live and dead cells using a two-color fluorescence assay, the Live/Dead® Viability/Cytotoxicity Kit (Molecular Probes). This assay is used to measure two recognized parameters of cell viability, intracellular esterase activity and plasma integrity. The membrane-impermeant DNA dye ethidium homodimer-1 (EthD-1) was used to identify dead cells whose plasma membrane integrity was disrupted. The membrane-permeant dye calcein-AM was used to label live cells. It penetrates into the cells where it is metabolized by cytoplasmic esterases and becomes a fluorescent but membrane-impermeant probe which is retained in viable cells. Human CEM leukemia cells were incubated overnight in RPMI medium (control) and in the presence of test compound and then treated with DEM for 3 hours. Cells were stained with 0.2 μM calcein-AM and 0.4 μM EthD-1. After 15 minutes, flow cytometry analysis was carried out using excitation at 488 nm. The green-fluorescent (539 nm) FL1-H channel, live-cell population appears in the lower right quadrant and the red-fluorescent (585 nm) FL2-H channel dead-cell population appears in the upper left quadrant (FIG. 11). In each analysis, 10,000 events were recorded. Results obtained were verified in three independent experiments.

CEM leukemia cells [5] = assay: C11-BODIPY581/591 oxidation in cell culture (lipid peroxidation); type: cell-based, human; settings: 2.5 or 1 μM, pretreatment 4 or 24 hours, glutathione depleted
Method: Lipid peroxidation in CEM leukemia cells was detected by utilizing the oxidant-sensitive lipophilic probe C11 BODIPY^581/591. Briefly, CEM cells (5×10^5 cell/mL) were treated with the test compounds at final concentrations of 1 and 2.5 μM, and incubated at 37° C. for 4 or 24 h in a humidified atmosphere containing 5% CO2 in air. Cells were treated with 500 nM C11 BODIPY^581/591 in phenol red-free RPMI-1640 media and incubated at 37° C. in the dark for 30 minutes. The cells were washed twice with phosphate buffered saline and oxidative stress was induced with 5 mM DEM in phenol red-free RPMI-1640 media for 90 minutes. Treated cells were collected by centrifugation at 300×g for 3 minutes and then washed twice with phosphate buffered saline. Cells were resuspended in 250 μL of phosphate buffered saline and were analyzed by FACS (FACS Calibur flow cytometer, Becton Dickinson) to monitor the change in intensity of the C11 BODIPY^581/591-green (oxidized) fluorescence signal.

## COc1nc(N(C)C)nc(CCCCCCCCCCO)c1O [Compound D, 2-(dimethylamino)-4-(10-hydroxydecyl)-6-methoxypyrimidin-5-ol]
CEM cells [1]; pretreatment 0.5, 1 or 5 μM, DEM
  suppression of ROS production (DCF fluorescence): most effective compound in suppressing ROS; also recorded: very effective in suppressing ROS
CEM cells [2]
  maintaining cell viability (trypan blue exclusion): quite effective in maintaining cell viability following DEM treatment, with D being the most effective; also recorded: superior to idebenone in maintaining the viability of DEM-treated cells
CEM leukemia cells [3]
  maintaining mitochondrial membrane potential Δψm: the most effective in maintaining mitochondrial membrane potential; also recorded: very favorable properties

## COc1cc(C)c(O)c(CCCCCCCCCCO)n1 [Compound F, 2-(10-hydroxydecyl)-6-methoxy-4-methylpyridin-3-ol]
other
  melting point: 80 to 81 °C

## CCCCCc1nc(N(C)C)nc(C)c1O [Compound H, 2-(dimethylamino)-4-methyl-6-pentylpyrimidin-5-ol]
other
  melting point: 61 to 62 °C

## CCCCCCCCCCc1nc(N(C)C)nc(C)c1O [Compound I, 4-decyl-2-(dimethylamino)-6-methylpyrimidin-5-ol]
CEM cells [1]
  suppression of ROS (DCFH-DA): most effective compounds at suppressing ROS in this assay; also recorded: especially effective
other
  melting point: 71 to 72 °C

## CCCCCCCCCCCCCCCCc1nc(N(C)C)nc(C)c1O [Compound J, 2-(dimethylamino)-4-hexadecyl-6-methylpyrimidin-5-ol]
CEM cells [1]
  suppression of ROS (DCFH-DA): most effective compounds at suppressing ROS in this assay; also recorded: especially effective
other
  melting point: 86 to 87 °C

## Cc1nc(N)nc(CCCCCCCCCCO)c1O [Example 10, 2-amino-4-(10-hydroxydecyl)-6-methylpyrimidin-5-ol]
other
  melting point: 103 to 104 °C

## Cc1nc(N(C)C)nc(C)c1O [compound 12, 2-N,N-dimethylamino-5-hydroxy-4,6-dimethylpyrimidine]
[4]
  quenching of lipid peroxidation (retention of C11-BODIPY581/591 fluorescence): less active than its counterpart compound A

## CC(=O)Oc1c(C)nc2c(c1CC[C@](C)(O)CCC[C@H](C)CCC[C@H](C)CCCC(C)C)CCN2C [compound 35, 4-((3R,7R,11R)-3-hydroxy-3,7,11,15-tetramethylhexadecyl)-1,6-dimethyl-2,3-dihydro-1H-pyrrolo[2,3-b]pyridine-5-yl acetate]
CEM cells [2]
  maintaining cell viability (trypan blue exclusion): both effective in maintaining cell viability following treatment with DEM, with the acetate of compound C being somewhat more effective

## Cc1nc2c(c(C)c1O)CCN2C [compound C redox core, 1,4,6-trimethyl-2,3-dihydro-1H-pyrrolo[2,3-b]pyridin-5-ol, reference compound]
[4]; listed as 1,4,6-trimethyl-2,3-dihydro-1H-pyrrolo[2,3-b]pyridin-5-ol
  quenching of lipid peroxidation (retention of C11-BODIPY581/591 fluorescence): much less effective in the same assay system
[4]; listed as Compound C redox core
  quenching of lipid peroxidation (retention of C11-BODIPY581/591 fluorescence): less effective than compound C itself
CEM cells [1]
  protection against ROS production (DCF fluorescence): no protection
CEM cells [2]
  maintaining cell viability (trypan blue exclusion): quite ineffective
Human CEM leukemia cells
  maintaining cell viability (Live/Dead kit, flow cytometry): quite ineffective
CEM leukemia cells [5]
  protection against lipid peroxidation in cells (C11-BODIPY581/591 green fluorescence): no protection

## Cc1c(C)c2c(c(C)c1O)CCC(C)(C(=O)O)O2 (stereo not shown) [trolox, reference compound]
CEM cells [1]
  protection against ROS production (DCF fluorescence): no protection
CEM cells [2]
  maintaining cell viability (trypan blue exclusion): quite ineffective
Human CEM leukemia cells
  maintaining cell viability (Live/Dead kit, flow cytometry): quite ineffective
CEM leukemia cells [5]
  protection against lipid peroxidation in cells (C11-BODIPY581/591 green fluorescence): no protection
